The source of these data is PubChem BioAssay (NCI).

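1) Cells in 96-well plates. 2) Compound, 48 h, 5 concentrations. 3) Linear interpolation between surrounding doses. 4) Unreached endpoint = highest concentration. GI50 = concentration required for 50% inhibition of growth. Definition used: TGI = concentration required for complete inhibition of growth.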 Where only a bound is given, the exact number is not on record here.

Test systems include CAKI-1 renal; EKVX NSCLC; HCT-116 colon; HOP-62 NSCLC; RPMI-8226 leukemia; SF-539 CNS; U251 CNS; UACC-257 melanoma; BT-549 breast; SF-268 CNS.
What all share (test): growth of human tumour cells (NCI), 48 h

Turning to `CC1(c2ccc[n+](Cc3ccccc3)c2)OCCO1`, the TGI in the assay with CAKI-1 renal, in the assay on EKVX NSCLC, with HCT-116 colon, with HOP-62 NSCLC, with RPMI-8226 leukemia and in the assay with SF-539 CNS was greater than 100 µM each time. Further, the TGI with U251 CNS and in the assay on UACC-257 melanoma was greater than 100 µM in each case.
`CCCCCC(C)SC1(C(=O)OC)CC(OC(C)=O)C(NC(C)=O)C([C@H](OC(C)=O)[C@@H](COC(C)=O)OC(C)=O)O1` (some centres not stated): the TGI in the assay on BT-549 breast, in the assay on CAKI-1 renal, in the assay with HCT-116 colon, with HOP-62 NSCLC, in the assay on RPMI-8226 leukemia and with SF-268 CNS was greater than 100 µM throughout. Also, the TGI in the assay on SF-539 CNS is 70.1 µM; in the assay with U251 CNS it was greater than 100 µM; in the assay on UACC-257 melanoma it was greater than 100 µM.
`COc1cc(/C=C2/C[C@H]3[C@@H]4CC=C5C[C@@H](OC(C)=O)CC[C@]5(C)[C@H]4CC[C@]3(C)NC2=O)cc(OC)c1OC`: the TGI in the assay with BT-549 breast was 55 µM; in the assay with CAKI-1 renal, greater than 100 µM; in the assay with EKVX NSCLC, 68.3 µM; with HCT-116 colon, greater than 100 µM; with HOP-62 NSCLC it was 73.1 µM; in the assay with SF-268 CNS, 76 µM. Also, the results for the TGI with SF-539 CNS, in the assay with U251 CNS and with UACC-257 melanoma were 37.5 µM, 46.5 µM and 97.1 µM, respectively.
With `C[C@H]1C[C@H]2[C@@H]3C(C)(C)O[C@]4(O)C(=O)[C@]5(O)[C@@H](C)CC[C@H]1[C@]25C(=O)[C@]34C`, the TGI in the assay with CAKI-1 renal was greater than 100 µM; with HCT-116 colon, greater than 100 µM; in the assay on HOP-62 NSCLC it was greater than 100 µM; in the assay on RPMI-8226 leukemia, 45.8 µM; in the assay on SF-268 CNS it was greater than 100 µM; in the assay on SF-539 CNS, greater than 100 µM. The TGI with U251 CNS and in the assay on UACC-257 melanoma was greater than 100 µM throughout.
As to `Cc1cc(N2CCCC2)nc(N(CCNc2ccnc3cc(Cl)ccc23)Cc2ccco2)n1`, the GI50 was 5.74 µM in the assay with BT-549 breast; 5.7 µM in the assay with EKVX NSCLC; 1.91 µM in the assay on HCT-116 colon; 5.64 µM with HOP-62 NSCLC; 2.02 µM with RPMI-8226 leukemia; 11.7 µM with SF-268 CNS. For the same compound, the GI50 in the assay with SF-539 CNS was 3.27 µM; in the assay with U251 CNS it was 3.15 µM; in the assay on UACC-257 melanoma it was 10.8 µM. In addition, the TGI is greater than 100 µM in the assay with BT-549 breast; greater than 100 µM in the assay on EKVX NSCLC; greater than 100 µM with HCT-116 colon; 30 µM in the assay with HOP-62 NSCLC; 4.5 µM in the assay with RPMI-8226 leukemia; greater than 100 µM in the assay with SF-268 CNS. For the same compound, the TGI in the assay with SF-539 CNS is 10.4 µM; in the assay on U251 CNS, 21.4 µM; with UACC-257 melanoma, greater than 100 µM.
Consider `OC(CCNCc1ccccc1)c1ccc2ccccc2c1` (configuration not stated), for which the TGI with CAKI-1 renal is 42.6 µM; with EKVX NSCLC, greater than 100 µM; with HCT-116 colon it was 47.1 µM; with HOP-62 NSCLC, 33.5 µM; in the assay with RPMI-8226 leukemia it was 73.3 µM; in the assay on SF-268 CNS, 48 µM. In addition, the values for the TGI in the assay with SF-539 CNS, in the assay on U251 CNS and with UACC-257 melanoma were 31.9 µM, 30.6 µM and 32.2 µM, respectively.
Regarding `NCCCN(CCCN)CCN(CCN(CCCN)CCCN)CCN(CCCN)CCCN`, the TGI in the assay with CAKI-1 renal, in the assay on HCT-116 colon, in the assay with HOP-62 NSCLC, in the assay with RPMI-8226 leukemia, in the assay with U251 CNS and in the assay on UACC-257 melanoma was greater than 100 µM throughout.
Turning to `CCOC(=O)c1nc2ccc(C(F)(F)F)cc2nc1Oc1cc(OC)cc(OC)c1`, the TGI with BT-549 breast, in the assay on EKVX NSCLC, with HCT-116 colon, in the assay on HOP-62 NSCLC, in the assay on RPMI-8226 leukemia and in the assay with SF-268 CNS was greater than 100 µM each time. The TGI in the assay on SF-539 CNS, with U251 CNS and in the assay with UACC-257 melanoma was greater than 100 µM each time.
Consider `CCOC(=O)C(NC(=O)CC)(Nc1cc(C)on1)C(F)(F)F` (configuration not stated), for which the TGI with BT-549 breast, with EKVX NSCLC, in the assay with HCT-116 colon, in the assay with RPMI-8226 leukemia, in the assay with SF-268 CNS and in the assay with SF-539 CNS was greater than 100 µM each time. Besides, the TGI in the assay on U251 CNS and in the assay with UACC-257 melanoma was greater than 100 µM each time.
Turning to `COc1cc(C(C)c2cc3c(cc2OCCO)OCO3)cc(OC)c1OC` (configuration not stated), the TGI with CAKI-1 renal, with EKVX NSCLC, in the assay on HCT-116 colon, in the assay with HOP-62 NSCLC, in the assay on RPMI-8226 leukemia and in the assay with SF-268 CNS was greater than 100 µM each time. The TGI in the assay with SF-539 CNS is 4.81 µM; with U251 CNS, greater than 100 µM; with UACC-257 melanoma, greater than 100 µM.
As for `Oc1c([Si](c2ccccc2)(c2ccccc2)c2ccccc2)cc2ccccc2c1-c1c(O)c([Si](c2ccccc2)(c2ccccc2)c2ccccc2)cc2ccccc12`, the TGI in the assay with CAKI-1 renal, in the assay with EKVX NSCLC, in the assay with HOP-62 NSCLC, in the assay on RPMI-8226 leukemia, in the assay with SF-268 CNS and with SF-539 CNS was greater than 100 µM each time. Further, the TGI in the assay on U251 CNS and in the assay with UACC-257 melanoma was greater than 100 µM each time.
On to `CC1(C)CC(C)(C)C1=NNC(N)=O`, for which the TGI with CAKI-1 renal, with EKVX NSCLC, with HCT-116 colon, in the assay with HOP-62 NSCLC, in the assay on SF-268 CNS and with SF-539 CNS was greater than 100 µM throughout. Besides, the TGI in the assay on U251 CNS and in the assay with UACC-257 melanoma was greater than 100 µM in each case.
With `COc1cc(/C=C2\Sc3scc(-c4cccc([N+](=O)[O-])c4)[n+]3C2=O)cc(OC)c1OC`, the TGI in the assay with CAKI-1 renal was found to be 17.8 µM; with EKVX NSCLC it was 26.5 µM; in the assay on HCT-116 colon, 26.4 µM; in the assay with HOP-62 NSCLC it was 36.1 µM; with RPMI-8226 leukemia, 22.7 µM; in the assay on SF-268 CNS, 42.1 µM. Moreover, the TGI with SF-539 CNS came to 24.2 µM; in the assay with U251 CNS it was 26.3 µM; with UACC-257 melanoma, 25.2 µM.
In the case of `O=C1c2cc3c(cc2CC12Cc1ccc4c(c1C2=O)CCCC4)CCCC3` (configuration not stated), the TGI in the assay with CAKI-1 renal, in the assay with EKVX NSCLC, in the assay on HCT-116 colon, with HOP-62 NSCLC, in the assay on RPMI-8226 leukemia and in the assay with SF-268 CNS was greater than 100 µM each time. For the same compound, the TGI in the assay with SF-539 CNS was greater than 100 µM; in the assay with U251 CNS, 60.5 µM; in the assay on UACC-257 melanoma, greater than 100 µM.
